# Tested on: INS1E cells
# Format: cell-based, rat
SMILES,digitonin concentration giving maximal and sustained ADP-stimulated respiration [%],portion of ADP stimulated respiration that is oligomycin sensitive [%]
C[C@@H]1CC[C@@]2(OC1)O[C@H]1[C@@H](O)[C@H]3[C@@H]4CC[C@H]5C[C@@H](O[C@@H]6O[C@H](CO)[C@H](O[C@@H]7O[C@H](CO)[C@@H](O)[C@H](O[C@@H]8OC[C@@H](O)[C@H](O)[C@H]8O)[C@H]7O[C@@H]7O[C@H](CO)[C@H](O)[C@H](O[C@@H]8O[C@H](CO)[C@@H](O)[C@H](O)[C@H]8O)[C@H]7O)[C@H](O)[C@H]6O)[C@H](O)C[C@]5(C)[C@H]4CC[C@]3(C)[C@H]1[C@@H]2C [digitonin],0.01,–
CC[C@H]1/C=C/C=C/C[C@@H](C)[C@H](O)[C@@](C)(O)C(=O)[C@@H](C)[C@H](O)[C@@H](C)C(=O)[C@@H](C)[C@H](O)[C@@H](C)/C=C/C(=O)O[C@@H]2[C@H](C)[C@H](CC1)O[C@]1(CC[C@H](C)[C@H](C[C@@H](C)O)O1)[C@H]2C [oligomycin],–,~75
